Here are results for eleven compounds from patent publication US8741812B2, “Class of sterol ligands and their uses in regulation of cholesterol and gene expression” (New York University, priority 2004, dated 2014).

Data set [1] deals with T1, Recombinant human P450 27A1 (Homo sapiens, UniProt Q02318).
T1 construct: made in house; host or cells: E. coli
In words: P450 27A1 enzyme incubation: rate of 27-diol formation (GLC-MS). In kind it is biochemical. The conditions noted are these: for Synthesis rate of the 27-diol metabolite: 25 nmol substrate, 37° C.; for Total 27-diol metabolite: total over 10 min; for Substrate for the enzyme CYP 27A1: human enzyme expressed in E. Coli. The source says: (§1) Recombinant human P450 27A1, recombinant bovine adrenodoxin (Adx), and recombinant bovine adrenodoxin reductase (Adr) were expressed and purified as described previously (7). P450 27A1 with a heme content of 17.6 nmol/mg protein and showing a single band upon silver-stained SDS-polyacrylamide gel electrophoresis, and Adr and Adx with the spectral purity indexes of 7.5 (A278/A450) and 0.95 (A414/A276), respectively, were used for enzymatic assays. Adr and Adx are considered to be pure with the spectral purity indexes beginning from 7.5 for Adr and 0.86 for Adx (8).
(§2) P450 27A1 activities using cholesterol, desmosterol, zymosterol, lanosterol, or […] as the substrate were assayed in 40 mM phosphate buffer, pH 7.4. Stock solutions (10 mM) of cholesterol, desmosterol, zymosterol, and […] were prepared using 45% aqueous solution of 2-hydroxypropyl-β-cyclodextrin. Reaction mixtures (1 ml) contained 0.065 nmol of P450 27A1, 0.33 nmol of Adr, 1.3 nmol of Adx, and 25 nmol of substrate, Lanosterol was dissolved in methyl-β-cyclodextrin (Sigma, St. Louis, Mo.) and the reaction mixture contained 25 nmol substrate, 0.3 nmol enzyme, 1.5 nmol Adr and 6.5 nmol Adx. Enzymatic assays, initiated by addition of 1 μmol of NADPH, were carried out at 37° C. for different time intervals, and were terminated by adding 1 ml of either CH2Cl2 or CH2Cl2 that contained coprostanol. After extraction, the steroid were taken to dryness. In some studies deuterated 27-hydroxycholesterol (9) was used as an internal standard.
(§3) For zymosterol and desmosterol, the rate of diol formation was determined at 2.5, 5.0, and 10 min by removing aliquots and adding deuterated 27-hydroxycholesterol as an internal standard. The m/z 454 area was then compared with the m/z=462 area at each time interval. Because authentic standards are not available for constructing standard curves, it was assumed that the area/mass ratios for deuterated 27-hydroxycholesterol, zymosterol and desmosterol were equal. A second approach was to quantify the rate of disappearance of substrate using coprostanol added at the end of the incubation period. In all studies a parallel incubation with the omission of adrenodoxin reductase served as a control.
(§4) The trimethylsilyl ethers were prepared using MSTFA, (Pierce, Rockford, Ill.). Methyl esters were prepared using freshly distilled diazomethane. GLC-MS analyses were done on a Shimidzu GLC 17A instrument attached to a Model 5000 mass detector. Samples were injected in the split-mode onto a ZB-1701, 30 m×0.25 mm×0.15 μm capillary column (Phenomenex, Torrance, Calif.) and temperature programming at 1° C. beginning at 240° C.

In data set [2] the target is T1, Recombinant human P450 27A1. In words: P450 27A1 enzyme incubation: disappearance of substrate, coprostanol internal standard. Type of data set: biochemical.
Text: as §1, §2, §3, §4
TABLE 3 indicates the percent of zymosterol, desmosterol, and lanosterol that was metabolized compared with that of cholesterol and 7-dehydrocholesterol using coprostanol (m/z=370) as an internal standard and (−) adrenodoxin reductase as a control.

Data set [3] deals with T2, HMG CoA reductase (Homo sapiens, UniProt P04035).
T2 sequence (P04035 1-888): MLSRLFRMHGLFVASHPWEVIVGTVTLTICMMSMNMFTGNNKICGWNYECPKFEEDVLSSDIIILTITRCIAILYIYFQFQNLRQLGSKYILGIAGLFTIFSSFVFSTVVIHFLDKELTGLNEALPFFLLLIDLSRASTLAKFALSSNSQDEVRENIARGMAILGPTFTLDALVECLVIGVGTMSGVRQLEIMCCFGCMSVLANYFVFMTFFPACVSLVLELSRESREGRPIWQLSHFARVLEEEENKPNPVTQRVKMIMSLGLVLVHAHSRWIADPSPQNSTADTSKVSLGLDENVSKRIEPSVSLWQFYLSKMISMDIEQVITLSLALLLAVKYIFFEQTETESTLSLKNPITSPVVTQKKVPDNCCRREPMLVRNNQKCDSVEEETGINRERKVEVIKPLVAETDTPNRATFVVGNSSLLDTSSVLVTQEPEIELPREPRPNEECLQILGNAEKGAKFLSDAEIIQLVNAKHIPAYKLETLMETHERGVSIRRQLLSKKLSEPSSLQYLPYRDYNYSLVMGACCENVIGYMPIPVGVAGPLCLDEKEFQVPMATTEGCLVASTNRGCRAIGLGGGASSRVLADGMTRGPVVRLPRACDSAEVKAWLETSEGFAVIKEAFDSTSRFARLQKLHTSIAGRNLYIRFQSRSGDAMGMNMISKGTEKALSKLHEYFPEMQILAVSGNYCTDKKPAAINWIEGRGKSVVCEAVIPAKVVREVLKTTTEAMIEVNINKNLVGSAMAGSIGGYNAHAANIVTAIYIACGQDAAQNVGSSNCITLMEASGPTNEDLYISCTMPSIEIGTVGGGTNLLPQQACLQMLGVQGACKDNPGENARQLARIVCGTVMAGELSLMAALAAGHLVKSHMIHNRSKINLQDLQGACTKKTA
Nature of the data set: Ubiquitination of reductase in a permeabilized cell system. In kind it is cell-based. To be noted: permeabilized cells; data not shown. As to the method: It was determined whether intermediates in cholesterol synthesis promote ubiquitination of reductase in a permeabilized cell system. […] The methyl and side chain hydroxyl groups of 27-hydroxylanosterol appear to act synergistically in promoting reductase ubiquitination.

Data set [4] has as its system human retinal pigment epithelial cells (ARPE19). In kind it is cell-based. The text has this: We undertook to determine the effect of 27-hydroxylation of 7-ketocholesterol on the cytotoxic effect of 7-ketocholesterol. To test the general hypothesis that 27-hydroxylation of steroids markedly alters their biologic activity, the 27-hydroxy derivative of 7-ketocholesterol was synthesized from 27-hydrocholesterol using modifications of a previously published method (11). Its biologic effects on human retinal pigment epithelial cells (ARPE19) was compared to that of 7-ketocholesterol.
By contrast, retinal pigment epithelial cells maintained in the presence of 27-hydroxy-7-ketocholesterol had only a 10% reduction in viability compared to control.

Data set [5] concerns the target T3, LXRα (Homo sapiens, UniProt Q13133).
T3 sequence (Q13133 1-447): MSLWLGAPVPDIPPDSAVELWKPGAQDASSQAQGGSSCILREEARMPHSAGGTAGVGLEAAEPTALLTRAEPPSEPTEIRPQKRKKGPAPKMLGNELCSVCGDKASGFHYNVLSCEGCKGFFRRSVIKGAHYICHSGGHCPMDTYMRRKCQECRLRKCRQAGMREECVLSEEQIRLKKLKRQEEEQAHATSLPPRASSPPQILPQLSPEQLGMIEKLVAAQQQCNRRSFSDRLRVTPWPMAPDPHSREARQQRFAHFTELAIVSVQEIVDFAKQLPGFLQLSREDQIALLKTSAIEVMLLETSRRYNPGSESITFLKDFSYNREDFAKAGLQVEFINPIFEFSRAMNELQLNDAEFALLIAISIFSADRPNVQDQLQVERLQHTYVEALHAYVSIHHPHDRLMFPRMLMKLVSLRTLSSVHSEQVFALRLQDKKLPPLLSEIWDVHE
The conditions noted are these: cited from earlier work.

The target of data set [6] is T4, LXRβ (Homo sapiens, UniProt P55055).
T4 sequence (P55055 1-460): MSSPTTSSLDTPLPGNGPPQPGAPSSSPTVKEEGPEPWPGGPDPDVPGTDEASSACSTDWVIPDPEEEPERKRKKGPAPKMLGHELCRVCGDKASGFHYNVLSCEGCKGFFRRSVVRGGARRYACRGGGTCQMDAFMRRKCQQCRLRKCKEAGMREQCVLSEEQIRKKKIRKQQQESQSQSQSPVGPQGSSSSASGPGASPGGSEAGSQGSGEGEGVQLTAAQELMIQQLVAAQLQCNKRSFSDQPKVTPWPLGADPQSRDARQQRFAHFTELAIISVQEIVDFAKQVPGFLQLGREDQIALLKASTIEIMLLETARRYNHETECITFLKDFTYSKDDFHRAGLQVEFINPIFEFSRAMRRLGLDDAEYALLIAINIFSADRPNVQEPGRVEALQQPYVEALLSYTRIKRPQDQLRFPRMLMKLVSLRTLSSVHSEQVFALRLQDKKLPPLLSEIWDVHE
The conditions noted are these: cited from earlier work.

Setting [7] is: Adrenodoxin reductase (−) control incubation, 20 min.
The mark [8] stands for this setting: Adrenodoxin reductase +, 20 min.
Where [9] appears, read: disappearance of substrate at 20 min versus incubation without adrenodoxin reductase.

SMILES strings stand for the structures. Like-named read-outs stand apart in the source and are kept apart here.

T1 sequence (Q02318 34-531): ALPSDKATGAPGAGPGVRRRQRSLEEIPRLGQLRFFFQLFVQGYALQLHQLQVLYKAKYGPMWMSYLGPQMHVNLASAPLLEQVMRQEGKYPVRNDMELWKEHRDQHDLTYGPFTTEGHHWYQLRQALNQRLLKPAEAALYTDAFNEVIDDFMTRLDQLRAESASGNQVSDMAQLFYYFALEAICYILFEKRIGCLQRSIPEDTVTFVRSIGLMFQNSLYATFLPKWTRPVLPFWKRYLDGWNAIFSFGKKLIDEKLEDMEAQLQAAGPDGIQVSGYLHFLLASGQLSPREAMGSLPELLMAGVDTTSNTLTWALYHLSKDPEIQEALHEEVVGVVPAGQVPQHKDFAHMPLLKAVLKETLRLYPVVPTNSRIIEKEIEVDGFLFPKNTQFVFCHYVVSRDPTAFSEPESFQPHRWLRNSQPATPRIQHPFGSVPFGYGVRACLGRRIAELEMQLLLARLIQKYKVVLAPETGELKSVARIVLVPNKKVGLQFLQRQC

For the compound `CC(C)CCC[C@@H](C)[C@H]1CC[C@H]2C3=CC=C4C[C@@H](O)CC[C@]4(C)[C@H]3CC[C@]12C` [7-Dehydrocholesterol], the “Synthesis rate of the 27-diol metabolite” value amounted to 24 ng/min in data set [1] (0-2.5 min), 54 ng/min in data set [1] (2.5-5.0 min) and 11 ng/min in data set [1] (5.0-10 min). Besides, in data set [1], the “Total 27-diol metabolite” value is on record as 107 ng/10 min. The Sterol/int std ratio in data set [2] (setting [7]) stood at 0.95; in data set [2] (setting [8]), 0.65. In addition, in data set [2] (setting [9]), the Percent metabolized turned out to be 32%.
For `C[C@H](CCCC(C)(C)O)[C@H]1CC[C@H]2[C@@H]3C(=O)C=C4C[C@@H](O)CC[C@]4(C)[C@H]3CC[C@]12C` [7-keto-25-hydroxycholesterol], in data set [3], the “Stimulation of ubiquitination of reductase” value (shortened to “Stimulation … of reductase”) is “stimulated ubiquitination of reductase”.
`CC(C)CCC[C@@H](C)[C@H]1CC[C@H]2[C@@H]3C(=O)C=C4C[C@@H](O)CC[C@]4(C)[C@H]3CC[C@]12C` [7-ketocholesterol]: the results for the “Viability of retinal pigment epithelial cells” value in data set [4] (25 μmolar) and in data set [4] (50 μmolar) were 68% and 20%, respectively.
Take `C[C@H](CCCC(C)(C)O)[C@H]1CC[C@H]2[C@@H]3CC=C4C[C@@H](O)CC[C@]4(C)[C@H]3CC[C@]12C` [25-hydroxycholesterol]: the “Stimulation … of reductase” value in data set [3] is reported as “stimulated ubiquitination of reductase”.
Regarding `CC(CO)CCC[C@@H](C)[C@H]1CC[C@H]2C3=CC=C4C[C@@H](O)CC[C@]4(C)[C@H]3CC[C@]12C` (some centres unmarked) [27-hydroxy-7-dehydrocholesterol], the “Expression of the nuclear receptor LXRα” value in data set [5] is reported as “specifically upregulate”.
For the compound `CC(CO)CCC[C@@H](C)[C@H]1CC[C@H]2[C@@H]3CC=C4C[C@@H](O)CC[C@]4(C)[C@H]3CC[C@]12C` (some centres unmarked) [27-hydroxycholesterol], the “Expression of the nuclear receptor LXRα” value in data set [5] is on record as “upregulates”. Moreover, the “Stimulation … of reductase” value in data set [3] is on record as “stimulated ubiquitination of reductase”. Besides, the “Expression of the nuclear receptor LXRβ” value in data set [6] is “upregulates”.
With `CC(=CCCC(C)C1CCC2(C)C3=C(CCC12C)C1(C)CCC(O)C(C)(C)C1CC3)CO` (centres unmarked) [27-hydroxylanosterol], in data set [3], the “Concentration giving approximately equivalent levels of reductase ubiquitination as 25 μM lanosterol” value is 2.5 µM and the “Stimulation … of reductase” value is listed as “strongly stimulated reductase ubiquitination”.
Consider `CC(C)CCC[C@@H](C)[C@H]1CC[C@H]2[C@@H]3CC=C4C[C@@H](O)CC[C@]4(C)[C@H]3CC[C@]12C` [Cholesterol], for which the figures for the “Synthesis rate of the 27-diol metabolite” value in data set [1] (0-2.5 min), in data set [1] (2.5-5.0 min) and in data set [1] (5.0-10 min) were 80 ng/min, 75 ng/min and 53 ng/min, respectively. In addition, the “Total 27-diol metabolite” value in data set [1] amounted to 534 ng/10 min. The “Stimulation … of reductase” value in data set [3] is listed as “not”. In data set [2] (human, 20 min, 25 µM, pH 7.4), the Percent metabolized worked out at 22%.
As for `CC(C)=CCC[C@@H](C)[C@H]1CC[C@H]2[C@@H]3CC=C4C[C@@H](O)CC[C@]4(C)[C@H]3CC[C@]12C` [Desmosterol], the “Synthesis rate of the 27-diol metabolite” value amounted to 3 ng/min in data set [1] (0-2.5 min), 8 ng/min in data set [1] (2.5-5.0 min) and 9 ng/min in data set [1] (5.0-10 min). The “Substrate for the enzyme CYP 27A1” value in data set [1] was “substrates for the enzyme”. Further, the “Total 27-diol metabolite” value in data set [1] stood at 85 ng/10 min. For the same compound, the Sterol/int std ratio in data set [2] (setting [7]) is on record as 0.12; in data set [2] (setting [8]), 0.09. The Percent metabolized in data set [2] (setting [9]) is recorded as 25%.
With `CC(C)=CCC[C@@H](C)[C@H]1CC[C@@]2(C)C3=C(CC[C@]12C)[C@@]1(C)CC[C@H](O)C(C)(C)[C@@H]1CC3` [Lanosterol], the “Substrate for the enzyme CYP 27A1” value in data set [1] is “substrates for the enzyme”. In addition, the “Stimulation … of reductase” value in data set [3] is listed as “potently stimulate ubiquitination of reductase”.
In the case of `CC(C)=CCC[C@@H](C)[C@H]1CC[C@H]2C3=C(CC[C@]12C)[C@@]1(C)CC[C@H](O)C[C@@H]1CC3` [Zymosterol], the “Synthesis rate of the 27-diol metabolite” value in data set [1] (0-2.5 min) is given as 9 ng/min; in data set [1] (2.5-5.0 min), 14 ng/min; in data set [1] (5.0-10 min), 10 ng/min. Moreover, in data set [1], the “Substrate for the enzyme CYP 27A1” value is “substrates for the enzyme”. In addition, the “Total 27-diol metabolite” value in data set [1] is 97 ng/10 min.
